In patent US10835507B2, “Treatment of muscular disorders with combinations of RXR agonists and thyroid hormones” (Io Therapeutics, Inc., priority 2016, dated 2020):
Entries after “also recorded” stand apart in the source; their conditions may differ.

What was measured:
[1] = molecular target: T1, RXRα (Homo sapiens, UniProt P19793); details: RXR receptors vs RAR receptors
T1 sequence (P19793 1-462): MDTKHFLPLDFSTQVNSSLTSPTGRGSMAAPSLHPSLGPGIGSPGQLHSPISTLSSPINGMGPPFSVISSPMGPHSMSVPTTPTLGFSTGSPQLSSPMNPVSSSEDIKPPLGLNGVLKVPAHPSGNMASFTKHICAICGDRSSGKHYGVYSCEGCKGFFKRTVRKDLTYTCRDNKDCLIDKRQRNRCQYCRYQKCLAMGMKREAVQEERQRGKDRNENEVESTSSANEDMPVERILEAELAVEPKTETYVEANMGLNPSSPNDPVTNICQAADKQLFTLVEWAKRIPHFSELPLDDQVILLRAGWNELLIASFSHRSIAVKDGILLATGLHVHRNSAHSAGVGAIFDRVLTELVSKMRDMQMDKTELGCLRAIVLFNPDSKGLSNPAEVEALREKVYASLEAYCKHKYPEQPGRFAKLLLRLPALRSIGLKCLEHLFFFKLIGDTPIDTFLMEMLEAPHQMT
Procedure: To determine whether a RXR agonist can mediate its effects via RXRα receptor homodimers, RXRβ receptor homodimers, RXRγ receptor homodimers, or any combination thereof, or the corresponding RAR/RXR heterodimers, receptor-mediated transactivation assays were performed. For transactivation assays assessing RXR homodimer signaling, CV-1 cells were transfected with 1) an expression construct including a full length RXRα, RXRβ, or RXRγ; and 2) a rCRBPII/RXRE-tk-Luc reporter construct that included RXR homodimer-specific RXRE/DR1 responsive element linked to a luciferase gene. For transactivation assays assessing RAR/RXR heterodimer signaling, CV-1 cells were transfected with 1) an expression construct comprising a fusion protein including an estrogen receptor (ER) DNA binding domain linked to the ligand binding domain of RARα, RARβ, or RARγ and 2) a ERE-tk-Luc reporter construct that included an estrogen receptor responsive element linked to a luciferase gene. […] Data are mean values±SE from five independent experiments.

[2] = Terminal T4 levels, mortality and body weight in the demyelination study, Example 7; details: 6 weeks treatment during CR
Excerpt: (§1) Animals (8 week-old male C57BL/6J mice) were subjected to cuprizone diet plus rapamycin injections (CR) for 6 weeks to induce demyelination. […] All animals were sacrificed after 6 weeks of CR to evaluate axonal integrity and microglial/macrophage activity in the white matter (corpus callosum, CC).
A total of 50 animals were included in the study, where 43 animals received CR demyelination for 6 weeks. During demyelination, a subset (n=7) of animals were kept on normal diet to serve as naïve age-matched controls.

[3] = tested on: oligodendrocyte precursor cells (OPCs); assay: Oligodendrocyte precursor cell differentiation (EGFP expression), Example 4; assay type: cell-based, mouse
Excerpt: OPCs were generated from a neurosphere culture of E14.5 PLP-EGFP (on C57BL/6J background) mouse brains. […] The EGFP expressing cells were quantified with Cellomics Neuronal Profiling Algorithm.
The EGFP expressing cells in controls and all compounds were quantified with Cellomics Neuronal Profiling Algorithm.

[4] = tested on: mouse model of non-immune mediated demyelination; assay: 6-week cuprizone plus rapamycin demyelination model, corpus callosum histology, Example 7; assay type: in vivo, C57BL/6J mice; details: IRX4204 10 mg/kg PO, T4 20 ng/g SQ, daily for 6 weeks during CR
Excerpt: as §1
The floating brain sections were immunostained with SMI-32 to visualize and quantify axonal ovoids in the CC.
The floating brain sections were immunostained with lba-1 to visualize and quantify microglia/macrophages in CC.

[5] = tested on: embryonic stem cells (ES); assay: Myogenic conversion of embryonic stem cells (embryoid bodies); assay type: cell-based; details: embryoid bodies without DMSO, approximately 1 nM to about 1 μM; present-tense example
Excerpt: To test the potency of RXRs on myogenic conversion of embryonic stem cells (ES), embryoid bodies are formed without DMSO. […] Myoblasts are examined through microscopy and the number of myocytes counted.

[6] = tested on: murine skeletal muscle myoblasts and primary myoblasts; assay: Myoblast differentiation; assay type: cell-based; details: about 10 nM to about 1 μM; present-tense example
Procedure: In order to determine and compare the efficacy of IRX4204 and IRX4204+thyroxine in myoblast differentiation, murine skeletal muscle myoblasts and primary myoblasts are cultured. Myogenic differentiation is initiated when cells are approximately 60-80% confluent, with the cells being differentiated into cell types, such as myotubes.

[7] = tested on: Pluripotent P19 cells; assay: Myogenic differentiation of pluripotent P19 cells; assay type: cell-based; details: approximately 1 nM to about 1 μM, 1% DMSO; present-tense example
Procedure: Cells fixed to cover slips are then incubated with primary antibodies for skeletal muscle markers and then labeled with secondary antibodies. Microscopy analysis is performed and the number of skeletal myocytes quantified.

[8] = tested on: mouse oligodendrocyte progenitor cells (OPCs); assay: Mouse oligodendrocyte progenitor cell differentiation, 5-day treatment, Example 5; assay type: cell-based; details: 96-well plates, plp-EGFP mouse OPCs
Procedure: OPCs were derived from plp-EGFP expressing mice.
Therapeutic agents were tested in 96-well plates (6 wells per concentration). […] All media contained 0.1% DMSO. At the end of the 5-day treatment, cells were imaged on Cellomics in two channels and algorithms were used to count nuclei and EGFP+ oligodendrocytes.

[9] = tested on: spontaneously hypertensive rats (SHRs); assay: Cardiac hypertrophy in spontaneously hypertensive rats; assay type: in vivo, rat; details: present-tense example; for inhibition of the increase in cardiac mass and wall thickness: SHRs at 12 weeks of age, 10 mg to 100 mg/kg
Procedure: Four weeks old SHRs and control rats are randomized and put into groups of 5-10 rats/group. […] Transthoratic echocardiographs are performed to determine cardiac weights and measurements.
The animals are sacrificed at 16 weeks of age to determine cardiac hypertrophy. Hypertrophy is determined by the animal's left ventricle weight to body weight ratio. The myocyte cross-sectional area is also determined. Approximately 10 mg to about 30 mg of the animal's left ventricle is homogenized and subject to sodium dodecyl sulfate polyacrylamide gel electrophoresis (SDS-PAGE) and immunoblot analysis.

SMILES | potency in activating RXR receptors rather than RAR receptors [1] | terminal body weights vs vehicle group [2] | total cell number and pyknotic cells compared to controls ([3]; OPC culture) | OPC differentiation into oligodendrocytes (EGFP positive cells) compared to negative control (DMSO) ([3]; OPCs from E14.5 PLP-EGFP mouse brains) | Iba1 staining (microglia/macrophages) in CC compared to vehicle [4] | number of SMI32 stained axonal ovoids in CC compared to Vehicle [4] | potency at increasing myogenic differentiation (number of myocytes) [5] | myoblast differentiation (numbers of microfibers, differentiated cells) [6] | number of myogenically differentiated cells (skeletal myocytes) [7] | production of EGFP+ oligodendrocytes [8] | inhibition of the increase in cardiac mass and wall thickness [9] | RXRα expression in cardiac muscle tissue (immunoblot) ([9]; SHRs at 16 weeks of age) | inhibition of cardiomyocyte cross-sectional area increases ([9]; SHRs at 16 weeks of age) | ratio of left ventricle weight to body weight ([9]; SHRs at 16 weeks of age)
CC(/C=C/[C@@H]1C[C@]1(C)c1ccc2c(c1)C(C)(C)CCC2(C)C)=C\C(=O)O [IRX4204, 3,7-dimethyl-6(S),7(S)-methano,7-[1,1,4,4-tetramethyl-1,2,3,4-tetrahydronaphth-7-yl]2(E),4(E) heptadienoic acid] | > 1,000 fold | no significant difference | did not show any differences | significant increase in OPC differentiation into oligodendrocytes; also recorded: dose dependent increase in the number of the EGFP positive cells | no difference | trend towards decreased number of axonal ovoids but was not statistically different from the Vehicle | more potent at increasing differentiation than treatment with retinoic acid, bexarotene, or vehicle alone | increased numbers of microfibers as compared to cells treated with thyroxine or vehicle alone | higher number of myogenically differentiated cells as compared to cells treated with retinoic acid, bexarotene, or vehicle alone | clear dose-responses in oligodendrocyte production | greater inhibition of the increase in cardiac mass and wall thickness as compared to bexarotene-treated animals | up-regulated more | greater inhibition of cardiomyocyte cross-sectional area increases than treatment with bexarotene | 
C=C(c1ccc(C(=O)O)cc1)c1cc2c(cc1C)C(C)(C)CCC2(C)C [bexarotene, 4-[1-(3,5,5,8,8-pentamethyl-6,7-dihydronaphthalen-2-yl)ethenyl]benzoic acid, reference compound] |  |  |  |  |  |  |  |  |  |  | inhibition of the increase in cardiac mass and wall thickness as compared to vehicle-only treated SHRs |  |  | significantly lower ratio of left ventricle weight to body weight as compared to vehicle-only treated SHRs
N[C@@H](Cc1cc(I)c(Oc2ccc(O)c(I)c2)c(I)c1)C(=O)O [Compound T3, triiodothyronine, reference compound] |  |  |  |  |  |  |  |  |  | clear dose-responses in oligodendrocyte production |  |  |  | 
